Measured values reported in patent publication US9078851B2, “Composition for preventing or treating a spinal cord injury” (UNIVERSITY-INDUSTRY COOPERATION GROUP OF KYUNG HEE, priority 2009, dated 2015).

What was measured:
[1] = tested on: cytokines at spinal cord injury site; assay: Rat cytokine antibody array analysis of spinal cord tissue; format: in vivo; details: tail vein injection
Description: For the present experiment, male white mice (Sprague-Dawley 240-250 g, 7 weeks, 10 mice) were under general anesthetics by an intraperitoneal injection of Ketamin (80 mg/kg, Yuhan Corporation) and Rompun (7.4 mg/kg, Bayer Korea Corporation). Laminectomy was performed at spine T9-10 level to expose a spinal cord keeping intact dura. And then, rat was put on Spinal cord dropping device (NYU); spine processes at T8 and T11 sites were fixed by using a clamp, respectively; then, a rod (diameter 2 mm, weight 10 g) was dropped from 25 mm height vertical to dorsal part of spinal cord followed by suturing injury site muscle and skin. The rat of Sham-operated control group was performed only laminectomy at same area without damaging spinal cord injury (marked by ‘sham” in figures; hereinafter, the same as above).
Substance P (marked by ‘SP’ in figures; hereinafter, the same as above) dissolved in saline of 5 nmol/kg concentration was injected through tail vein at immediately, 24 hours, and 48 hours after a spinal cord injury for experimental groups. At sham control group, same volume of saline (marked by ‘vehicle’ in figures; hereinafter, the same as above) without Substance P was injected at same time points. Operation were performed on an electric heating pad of 37° C., and then rat were transferred to cage after awake from the anesthetic. • (2) Preparation of Tissue
A rat cytokine antibody array analysis was performed in order to investigate an effect of Substance P in expressing cytokine.
At immediately, 1 d, and 2d, Substance P or saline (the same volume without Substance P) was injected through tail vein using the same method as (1) of Example 1. After operating, the experimental group (4 rats/group) and the control (4 rats/group) were sacrificed at 1 d and 5d, respectively. The spinal cord tissue (1 cm) obtained from an animal was homogenized with a dissolution buffer solution (10% glycerol, 20 mM Tris [pH 8.0], 137 mM NaCl, 1% Nonidet P-40, 0.5 mM EDTA, 10 mM Na2P2O7, 10 mM NaF, 1 μg/ml aprotinin, 10 μg/ml leupeptin, 1 mM vanadate and 1 mM PMSF). A protein amount of supernatant was determined by BCA assay (Pierce). Subsequently, a cytokine assay was performed according to instructions of Ray Biotech Morcross GA protocol. A membrane was blocked with a blocking buffer solution, then 150 μg of a protein sample was added, and reacted for 2 hours at a room temperature. The membrane was washed and 1 ml of primary antibody conjugated with a biotin was added, and placed at 4° C. overnight. Next day, the membrane was washed, and reacted with 2 ml of streptoavidin conjugated with horseradish peroxidase for 30 minutes at a room temperature. The membrane was developed using enhanced chemiluminescence-type solution, and the film was exposed to Radiography. Using USA NIH Image and Image J software (Hong et al., 2009), density quantification of array was performed.

spinal cord injury = assay: Ethologic change test, BBB locomotor rating scale after spinal cord injury; format: in vivo, rat
Description: For the present experiment, male white mice (Sprague-Dawley 240-250 g, 7 weeks, 10 mice) were under general anesthetics by an intraperitoneal injection of Ketamin (80 mg/kg, Yuhan Corporation) and Rompun (7.4 mg/kg, Bayer Korea Corporation). Laminectomy was performed at spine T9-10 level to expose a spinal cord keeping intact dura. And then, rat was put on Spinal cord dropping device (NYU); spine processes at T8 and T11 sites were fixed by using a clamp, respectively; then, a rod (diameter 2 mm, weight 10 g) was dropped from 25 mm height vertical to dorsal part of spinal cord followed by suturing injury site muscle and skin. The rat of Sham-operated control group was performed only laminectomy at same area without damaging spinal cord injury (marked by ‘sham” in figures; hereinafter, the same as above). Substance P (marked by ‘SP’ in figures; hereinafter, the same as above) dissolved in saline of 5 nmol/kg concentration was injected through tail vein at immediately, 24 hours, and 48 hours after a spinal cord injury for experimental groups. At sham control group, same volume of saline (marked by ‘vehicle’ in figures; hereinafter, the same as above) without Substance P was injected at same time points. Operation were performed on an electric heating pad of 37° C., and then rat were transferred to cage after awake from the anesthetic. • (2) Preparation of Tissue An ethologic change test was performed as follows: an experimental animal was put to a large basin having soft and non-smooth bottom (Width 90 cm×Length 130 cm×Height 30 cm); then body's balance states and moving states of hind-leg's coxalgic pelvis, knee joint, and ankle joint were observed when freely walking; then it was converted into a score based on Basso-Bresnahan-Beattie (BBB) locomotor rating scale (Basso et al., 1995); and then four researchers performed a blind technique. Substance P or saline was injected to a tail vein of rat, respectively at immediately, 1 d, 2 d after a spinal cord injury, using the same method as (1) of Example 1. And then, for the experimental group (10 rats/group) and the control (9 rats/group), an ethologic change due to a spinal cord injury was observed and estimated for different periods, such as after injuring, 1 week, 2 weeks, 3 weeks, 4 weeks, 5 weeks, […], and 6 weeks. A mean value of scores (BBB scores) observed by four researchers was taken, and the results thereof were statistically analyzed. The statistical analysis was performed in a method of two-way ANOVA with post hoc Tukey test.

[2] = five days after spinal cord injury, vs control
[3] = one day after spinal cord injury

Substance: Substance P
- amount of IL-10 ([1]; 5 d after spinal cord injury): higher than the control
- expression of IFN-γ [1, 2]: slightly decreased
- expression of IL-1α [1, 2]: slightly decreased
- amount of IL-6 [1, 3]: meaningfully increased
- increase of amount of IL-4 [1, 3]: two times
- increase of amount of IL-10 [1, 3]: ten times
- motor skill (spinal cord injury; from 14 days, vs control): meaningful improved
- motor skill (spinal cord injury; from about 5 weeks, vs control): meaningfully recovered and improved
- spinal cord nerve function (spinal cord injury; from about one week after administrating, vs control): beginning to recover
- BBB score (spinal cord injury; tail vein injection at immediately, 1 d, 2 d after injury, at 6 weeks, P<0.05 vs control): 11.5±0.5
